In ChEMBL document CHEMBL5528044, “Exploring the Function of (+)-Naltrexone Precursors: Their Activity as TLR4 Antagonists and Potential in Treating Morphine Addiction” (J Med Chem, 2024):
Active and inactive are the calls of the source. The calls are words filed in the database; no cut-off is given here.

Columns and labels:
Mus musculus [1] = experiment: Inhibition of chronic morphine-induced microglia activation in Balb/c mouse assessed as reduction in Iba1 expression in brain medial prefrontal cortex region at 0.2 mg/kg,ip administrated for 6 consecutive days by immunofluorescence staining based analysis; type: functional, organism-based
[2] = Toxicity in morphine-induced Balb/c mouse assessed body weight loss at 0.2 mg/kg,ip administrated for 1 week and measured on day 15; type: organism-based; settings: in vivo, 360 h, time 15 day
[3] = Volume of distribution at steady state in Balb/c mouse at 2 mg/kg,iv administration and measured upto 24 hrs by LC-MS/MS analysis; type: ADME, organism-based; settings: in vivo, read-out: Vdss
[4] = AUC (0 to infinity) in Balb/c mouse at 2 mg/kg,iv administration and measured upto 24 hrs by LC-MS/MS analysis; type: ADME, organism-based; settings: in vivo
[5] = Half life in Balb/c mouse at 20 mg/kg,po administration and measured upto 24 hrs by LC-MS/MS analysis; type: ADME, organism-based; settings: in vivo
[6] = Tmax in Balb/c mouse at 20 mg/kg,po administration and measured upto 24 hrs by LC-MS/MS analysis; type: ADME, organism-based; settings: in vivo
[7] = molecular target: T1, Toll-like receptor 4 (Mus musculus) (UniProt Q9QUK6); experiment: Antagonist activity at TLR4 signaling pathway in mouse BV-2 cells assessed as downregulation of LPS-induced ERK phosphorylation at 5 uM incubated for 1 hr by Western blot analysis; type: cell-based; settings: filed as antagonist
T1 sequence (whole entry): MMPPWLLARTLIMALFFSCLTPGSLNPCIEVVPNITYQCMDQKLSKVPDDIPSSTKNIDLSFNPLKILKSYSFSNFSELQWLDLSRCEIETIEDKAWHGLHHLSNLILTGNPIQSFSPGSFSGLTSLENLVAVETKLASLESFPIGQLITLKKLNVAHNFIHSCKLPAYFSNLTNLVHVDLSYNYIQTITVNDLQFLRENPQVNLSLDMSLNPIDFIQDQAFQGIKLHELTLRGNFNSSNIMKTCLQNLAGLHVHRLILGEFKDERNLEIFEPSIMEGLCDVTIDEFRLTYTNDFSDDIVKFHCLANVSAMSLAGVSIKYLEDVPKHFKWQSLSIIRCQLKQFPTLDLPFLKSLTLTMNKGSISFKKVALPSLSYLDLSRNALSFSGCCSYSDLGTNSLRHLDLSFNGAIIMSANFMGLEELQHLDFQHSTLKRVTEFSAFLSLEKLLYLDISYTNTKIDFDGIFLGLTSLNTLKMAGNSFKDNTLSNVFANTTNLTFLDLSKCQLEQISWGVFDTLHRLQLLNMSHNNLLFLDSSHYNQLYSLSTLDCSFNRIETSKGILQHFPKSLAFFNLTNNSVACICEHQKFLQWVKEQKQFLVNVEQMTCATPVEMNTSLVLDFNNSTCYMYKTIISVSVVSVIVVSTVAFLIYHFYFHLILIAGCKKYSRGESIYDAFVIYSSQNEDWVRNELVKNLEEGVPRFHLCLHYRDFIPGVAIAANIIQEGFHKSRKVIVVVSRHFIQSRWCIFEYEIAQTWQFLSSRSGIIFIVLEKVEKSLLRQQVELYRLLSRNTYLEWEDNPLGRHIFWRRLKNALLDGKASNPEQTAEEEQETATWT

[8] = molecular target: T1, Toll-like receptor 4 (Mus musculus); experiment: Antagonist activity at TLR4 signaling pathway in mouse BV-2 cells assessed as downregulation of LPS-induced IRAK1 phosphorylation at 5 uM incubated for 1 hr by Western blot analysis; type: cell-based
[9] = molecular target: T1, Toll-like receptor 4 (Mus musculus); experiment: Antagonist activity at TLR4 in mouse BV-2 cells assessed as inhibition of LPS-induced NF-kappaB activation at 4 uM incubated for 24 hrs by dual-glo luciferase assay; type: cell-based; settings: filed as antagonist
Mus musculus [10] = experiment: Inhibition of chronic morphine-induced microglia activation in Balb/c mouse assessed as reduction in microglia cell number in brain medial prefrontal cortex region at 0.2 mg/kg,ip administrated for 6 consecutive days by immunofluorescence staining based analysis; type: functional, organism-based
[11] = molecular target: T1, Toll-like receptor 4 (Mus musculus); experiment: Antagonist activity at TLR4 signaling pathway in mouse BV-2 cells assessed as inhibition of LPS-induced TRIF recruitment at 5 uM incubated for 1 hr by co-immunoprecipitation based Western blot analysis; type: cell-based; settings: filed as antagonist
Mus musculus [12] = experiment: Inhibition of morphine-induced addiction behavior in Balb/c mouse assessed reduction in CPP score at 0.2 mg/kg,ip administrated for 6 consecutive days by conditioned place preference assay; type: functional, organism-based
[13] = Ratio of drug concentration in brain to plasma in Balb/c mouse at 2 mg/kg,iv measured after 30 mins by LC-MS/MS analysis; type: ADME, organism-based; settings: 0.5 h
Toll-like receptor 4 [14] = molecular target: T2, Toll-like receptor 4 (Mus musculus, UniProt Q9QUK6); experiment: Antagonist activity at TLR4 in mouse BV-2 cells assessed as inhibition of LPS-induced TNF-alpha production by ELISA; type: cell-based
T2 sequence (Q9QUK6 whole entry): T1 sequence (whole entry)

Mus musculus [15] = experiment: Inhibition of chronic morphine-induced microglia activation in Balb/c mouse assessed as reduction in microglia cell number in brain ventral tegmental area region at 0.2 mg/kg,ip administrated for 6 consecutive days by immunofluorescence staining based analysis; type: functional, organism-based
Mus musculus [16] = experiment: Inhibition of morphine-induced addiction behavior in Balb/c mouse assessed as decrease in total distance traveled in field at 0.005 to 0.2 mg/kg,ip administrated on day 4 to 10 by open-field test; type: functional, organism-based; settings: dose 0.005-0.2 mg/kg, time 7.0 day
Mus musculus [17] = experiment: Inhibition of chronic morphine-induced microglia activation in Balb/c mouse assessed as reduction in TNF-alpha mRNA expression in brain medial prefrontal cortex region at 0.2 mg/kg,ip administrated for 6 consecutive days by qPCR analysis; type: functional, organism-based
Mus musculus [18] = experiment: Inhibition of chronic morphine-induced microglia activation in Balb/c mouse assessed as reduction in TNF-alpha mRNA expression in brain ventral tegmental area region at 0.2 mg/kg,ip administrated for 6 consecutive days by qPCR analysis; type: functional, organism-based
[19] = Oral bioavailability in Balb/c mouse at 20 mg/kg administration and measured upto 24 hrs by LC-MS/MS analysis; type: ADME, organism-based; settings: in vivo
[20] = molecular target: T1, Toll-like receptor 4 (Mus musculus); experiment: Antagonist activity at TLR4 signaling pathway in mouse BV-2 cells assessed as downregulation of LPS-induced IRF-3 phosphorylation at 5 uM incubated for 1 hr by Western blot analysis; type: cell-based; settings: filed as antagonist
Mus musculus [21] = experiment: Inhibition of chronic morphine-induced microglia activation in Balb/c mouse assessed as reduction in microglia cell number in brain nucleus accumbens region at 0.2 mg/kg,ip administrated for 6 consecutive days by immunofluorescence staining based analysis; type: functional, organism-based
[22] = Cytotoxicity against mouse BV-2 cells incubated for 24 hrs by crystal violet staining based assay; type: toxicity, cell-based
Toll-like receptor 4 [23] = molecular target: T2, Toll-like receptor 4; experiment: Antagonist activity at TLR4 in mouse BV-2 cells assessed as inhibition of LPS-induced NO overproduction incubated for 24 hrs by 2,3-diaminonaphthalene reagent based microplate reader analysis; type: cell-based
Mus musculus [24] = experiment: Inhibition of chronic morphine-induced microglia activation in Balb/c mouse assessed as reduction in Iba1 expression in nucleus accumbens region at 0.2 mg/kg,ip administrated for 6 consecutive days by immunofluorescence staining based analysis; type: functional, organism-based
Mus musculus [25] = experiment: Inhibition of morphine-induced addiction behavior in Balb/c mouse assessed as decrease in locomotor activity at 0.005 to 0.2 mg/kg,ip administrated on day 4 to 10 by open-field test; type: functional, organism-based; settings: dose 0.005-0.2 mg/kg, time 7.0 day

SMILES	inhibition (Mus musculus [1])	Activity [2]	Vd [3] [L/kg]	AUC(0-inf) [4] [ng·h/mL]	half-life [5] [h]	Tmax [6] [h]	Activity [7]	Activity [8]	Activity [9]	inhibition (Mus musculus [10])	Activity [11]	inhibition (Mus musculus [12])	BPR [13] [%]	IC50 (Toll-like receptor 4 [14]) [µM]	inhibition (Mus musculus [15])	inhibition (Mus musculus [16])	inhibition (Mus musculus [17])	inhibition (Mus musculus [18])	bioavailability [19] [%]	Activity [20]	further results
CN1CC[C@@]23c4c5ccc(O)c4O[C@@H]2C(=O)C=C[C@]3(O)[C@@H]1C5 (single isomer, unassigned)	Active	Non-Toxic	75.5	71.8	8.9	1.2	Active	inactive	Active	Active	Active	Active	18.4	2.3	Active	inactive	Active	Active	41.1	Active	inhibition (Mus musculus [21]): inactive; IC50 at 24 h [22]: 13.7 µM; IC50 (Toll-like receptor 4 [23]): 1 µM; inhibition (Mus musculus [24]): Active; inhibition (Mus musculus [25]): Dose-Dependent Effect
COc1ccc2c3c1O[C@@H]1C(=O)C=C[C@]4(O)[C@H](C2)N(C)CC[C@@]314 (single isomer, unassigned)	Active	Non-Toxic	97	16.5	2.2	1.2	Active	inactive	Active	Active	Active	Active	73.6	4.2	Active	inactive	Active	Active	54.3	Active	inhibition (Mus musculus [21]): inactive; IC50 at 24 h [22]: 23.6 µM; IC50 (Toll-like receptor 4 [23]): 1.3 µM; inhibition (Mus musculus [24]): Active; inhibition (Mus musculus [25]): Dose-Dependent Effect
